In brackets after ≈: the same amount, converted by molar mass. Several values for one entry are separate records, joined by “and”; a condition that tells them apart may be missing. Identical values can stand only once. Like-named read-outs stand apart in the source and are kept apart here. Marks after values point to notes of the source that are not given here. Square brackets hold non-standard residues; d marks the D form. Peptide text beside a SMILES is read from it. Gly(N-CH2-oxan-4-yl) = O=C(O)CNCC1CCOCC1; NCyclohexylmethylGly = O=C(O)CNCC1CCCCC1; NMeL = CN[C@@H](CC(C)C)C(=O)O; NMeA = CN[C@@H](C)C(=O)O; NEtG = CCNCC(=O)O Some results are limits rather than exact numbers.

Series [1] is described as follows: Aqueous solubility, Japanese Pharmacopoeia Second Fluid (pH 6.8). It is filed as physicochemical. The settings on record: for Aq. Sol.: Japanese Pharmacopoeia Second Fluid (pH 6.8); for solubility: Japanese Pharmacopoeia Second Fluid.
Procedure: (§1) For each of these six pure compounds, calculated (atomistic) octanol/water partition coefficient (A Log P), aqueous solubility (Aq. Sol), PAMPA and MDCK permeabilities, experimental octanol/water partition coefficient (Log D (oct/w)), P-gp efflux ratios, microsomal stability, and serum protein binding were determined (Table 1 and FIG. 5).
Series [2] in a line: Oral bioavailability in mice. The settings on record: for bioavailability / BA: mouse; for bioavailability: po. It is filed as in vivo. An excerpt: Based on their permeabilities in PAMPA and MDCK cells, the in vivo pharmacokinetics of 5 of these 6 pure compound library members were investigated (B03 was not included in the oral PK study, because of its low (small) PAMPA and MDCK permeabilities). […] To test whether metabolism and efflux were the main factors contributing to the low oral bioavailability (BA), mice were pretreated with either the CYP inhibitor […] (ABT), the P-gp inhibitor elacridar (GF120918), or a combination of both the CYP and P-gp inhibitors. […] Combining the inhibitors also produced oral bioavailabilities that reflected the compounds' relative PAMPA permeabilities.

Series [3] is described as follows: Microsomal stability. It is filed as in vitro ADME. To be noted: remaining rate after 30 min of incubation with pooled liver microsomes (0.1 mg/mL, rats); for remaining at 0.5 h: rat. Background: Microsomes from liver hold many membrane-bound enzymes, among them those of drug oxidation.
The target in series [4] is T1, P-gp (Homo sapiens, UniProt P08183). To be noted: MDCK, 10 μM.
T1 sequence (P08183 whole entry): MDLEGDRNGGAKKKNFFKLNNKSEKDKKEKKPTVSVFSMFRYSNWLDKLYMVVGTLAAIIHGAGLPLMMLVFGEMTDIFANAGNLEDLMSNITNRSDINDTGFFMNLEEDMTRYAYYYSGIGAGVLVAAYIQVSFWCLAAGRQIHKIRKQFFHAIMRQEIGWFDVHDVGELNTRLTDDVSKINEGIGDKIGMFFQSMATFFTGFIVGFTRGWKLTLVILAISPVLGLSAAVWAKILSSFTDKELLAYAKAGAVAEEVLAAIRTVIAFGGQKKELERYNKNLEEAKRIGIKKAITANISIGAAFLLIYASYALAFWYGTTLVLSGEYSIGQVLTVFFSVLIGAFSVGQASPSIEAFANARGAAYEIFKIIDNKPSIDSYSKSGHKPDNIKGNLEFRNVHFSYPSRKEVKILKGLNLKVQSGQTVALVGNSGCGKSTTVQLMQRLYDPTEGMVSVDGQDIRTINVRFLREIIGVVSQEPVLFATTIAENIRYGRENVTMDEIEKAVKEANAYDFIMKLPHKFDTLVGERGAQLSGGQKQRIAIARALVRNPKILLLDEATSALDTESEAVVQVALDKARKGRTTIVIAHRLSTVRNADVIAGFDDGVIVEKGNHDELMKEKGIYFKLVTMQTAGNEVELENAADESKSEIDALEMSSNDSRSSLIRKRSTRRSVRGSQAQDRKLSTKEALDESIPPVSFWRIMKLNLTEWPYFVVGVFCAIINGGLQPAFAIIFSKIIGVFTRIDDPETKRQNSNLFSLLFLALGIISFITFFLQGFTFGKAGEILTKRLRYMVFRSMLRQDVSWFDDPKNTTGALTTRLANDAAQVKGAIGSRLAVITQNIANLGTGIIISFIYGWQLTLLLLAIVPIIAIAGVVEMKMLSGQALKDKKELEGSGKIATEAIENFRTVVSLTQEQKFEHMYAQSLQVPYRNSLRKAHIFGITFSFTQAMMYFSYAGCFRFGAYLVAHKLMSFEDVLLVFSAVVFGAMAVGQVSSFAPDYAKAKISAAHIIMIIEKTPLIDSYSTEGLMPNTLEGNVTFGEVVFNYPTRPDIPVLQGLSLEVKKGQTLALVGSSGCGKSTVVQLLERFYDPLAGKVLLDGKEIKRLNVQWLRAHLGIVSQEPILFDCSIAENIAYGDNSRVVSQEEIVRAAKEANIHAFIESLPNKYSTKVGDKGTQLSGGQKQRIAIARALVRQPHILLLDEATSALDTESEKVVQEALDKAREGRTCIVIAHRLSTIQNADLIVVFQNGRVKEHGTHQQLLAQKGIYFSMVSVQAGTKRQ
A short description of series [5]: in vitro. The settings on record: dog, MDCK, MDCK Perm.
Procedure: (§2) Permeabilities were also measured in a Madin-Darby canine kidney (MDCK) permeability assay, in which the passage of the compound through a semipermeable membrane coated with MDCK cells is measured.
Series [6] is described as follows: Serum protein binding. It is filed as in vitro ADME. The settings on record: bound fractions in rat plasma; for fraction unbound: rat, plasma.
Series [7] can be described thus: PAMPA permeability of pure compounds under sink conditions. It is filed as in vitro ADME. To be noted: detergents in donor and acceptor wells (sink conditions); for Papp: PAMPA, read-out: PAMPA Perm. The protocol:
PAMPA permeability studies on these six pure compounds were performed initially under the same conditions as those used in the original library screen, using a concentration of 1 μM in the donor well based on the estimated concentration of each compound in the original library. […] Without being bound by theory, it was hypothesized that the pure compounds were precipitating in the donor well or adhering to the walls of the apparatus, and that as mixtures they could act as pseudo-detergents (or mutual blocking agents) to help prevent escape from solution (such as through aggregation or adsorption). Therefore, the PAMPA permeabilities of the pure compounds using detergents in the donor and acceptor wells as “sink” conditions were re-investigated. Using these conditions, the permeability trends were similar to those observed in the Libraries. […] The PAMPA permeabilities of the scaffold A compounds were high (large) across the entire A Log P range, whereas the permeabilities of scaffold B compounds trended upward (greater) along with A Log P.
In general terms: The PAMPA barrier holds no transporters, so it reflects passive diffusion.

Series [8] deals with T1, P-gp. Nature of the series: in vitro. The settings on record: MDCK, P-gp R-value.
Series [9] can be described thus: Experimental octanol/water partition coefficient Log D (oct/w). To be noted: for logD: octanol/water, pH 7.4, LogD (oct/w).
Procedure: as §1
Series [10] relates to MDCK cells. The settings on record: dog.
Procedure: as §2
Series [11] can be described thus: PAMPA permeability under standard (library screen) conditions. To be noted: pure compounds, donor well concentration 20 μM. It is filed as in vitro ADME. An excerpt:
Libraries A and B were synthesized separately as mixtures using solid phase split-pool peptide synthesis, incorporating peptoid side chains as primary amines using the submonomer method. (Zuckermann R N et al. Efficient Method for the Preparation of Peptoids [Oligo(N-Substituted Glycines)] by Submonomer Solid-Phase Synthesis. J Am Chem Soc. (1992) 114, 10646-7. doi: DOI 10.1021/ja00052a076. PubMed PMID: WOS:A1992KD71700076.) The libraries were cleaved, cyclized in solution, and roughly purified using solid phase extraction on C18 media. Parallel artificial membrane permeability assays (PAMPA) were used to measure passive permeabilities; PAMPA permeabilities within each library varied parabolically as a function of A Log P (FIG. 2A).
PAMPA permeability studies on these six pure compounds were performed initially under the same conditions as those used in the original library screen, […] of each compound in the original library. […] Without being bound by theory, it was hypothesized that the pure compounds were precipitating in the donor well or adhering to the walls of the apparatus, and that as mixtures they could act as pseudo-detergents (or mutual blocking agents) to help prevent escape from solution (such as through aggregation or adsorption). […]

Series [12] is described as follows: physchem. To be noted: pH 7.4, LogD (oct/w).
Procedure: as §1
The mark [13] stands for this setting: pH 6.8, pure compounds, values in text, read-out: Aqueous solubility.
Setting [14] is: in vivo, mice, oral, no inhibitors, read-out: Oral bioavailability, no inhib.
[15] abbreviates: in vivo, mice, oral, pretreatment with 1-aminobenztriazole (CYP inhibitor), read-out: Oral bioavailability, +CYP inhib.
[16] abbreviates: in vivo, mice, oral, pretreatment with 1-aminobenztriazole and GF120918, read-out: Oral bioavailability, +CYP inhib. +P-gp inhib.
[17] abbreviates: not told, mice, oral, pretreatment with GF120918 (P-gp inhibitor), read-out: Oral bioavailability, +P-gp inhib.
Where [18] appears, read: pH 6.8, Japanese Pharmacopoeia Second Fluid (pH 6.8), read-out: Aq. Sol.
Setting [19] is: mice, oral, pretreatment with 1-aminobenztriazole and GF120918.

A word on the fraction remaining: it is what is left of the initial amount, in per cent. The term fraction unbound denotes free concentration divided by total concentration. A higher fraction unbound goes with much free substance. What is called efflux ratio is a quotient of directional permeabilities that is used to spot active efflux. A word on the logD: it is lipophilicity at a set pH, counting ionised and neutral species. Low readings indicate lower lipophilicity, high ones higher lipophilicity. Regarding `CCN1CC(=O)N[C@@H](CC(C)C)C(=O)N(C)[C@@H](C)C(=O)N[C@@H](CC(C)C)C(=O)N2CCC[C@@H]2C(=O)N(CC2CCOCC2)CC(=O)N[C@@H](CC(C)C)C(=O)N(C)[C@@H](C)C(=O)N[C@@H](C)C(=O)N2CCC[C@@H]2C1=O` [Compound A03] (cyclo([NEtG]L[NMeA]L[dP][Gly(N-CH2-oxan-4-yl)]L[NMeA]A[dP])), the “Aq. Sol.” value in [1] is reported as 1.900 mg/mL. The solubility in series [1] (setting [13]) amounted to 1900 µg/mL (≈ 1870 µM). Besides, the bioavailability amounted to 11.5% in [2] (in vivo, 30 mg/kg, oral dose 30 mg/kg, no inhibitors, based on AUC at 1 mg/kg IV dose, read-out: BA); 22.1% in series [2] (in vivo, 100 mg/kg, oral dose 100 mg/kg, no inhibitors, based on AUC at 1 mg/kg IV dose, read-out: BA); 49.8% in [2] (in vivo, 200 mg/kg, oral dose 200 mg/kg, no inhibitors, based on AUC at 1 mg/kg IV dose, read-out: BA); 1% in series [2] (setting [14]); 2% in series [2] (setting [15]); 39% in [2] (setting [16]). Further, the bioavailability in [2] (setting [17]) was determined as 4%. Also, the BA in series [2] (oral dose 3 mg/kg, no inhibitors, based on AUC at 1 mg/kg IV dose) was 1% and 0.99%; in series [2] (oral dose 200 mg/kg, no inhibitors, based on AUC at 1 mg/kg IV dose) it was 50%. Moreover, in series [3], the share remaining at 0.5 h came out at 64%. Besides, the “Microsomal Stability” value in series [3] was found to be 64%. The “P-gp R-value” in [4] was 6.4. For the same compound, the Papp in [5] came to 0.4 ×10⁻⁶ cm/s; in series [7], 18 ×10⁻⁶ cm/s. Also, the unbound share (fraction unbound) in series [6] is 0.31. Besides, the “PAMPA Perm.” value in [7] stood at 1.72e-05 cm/s. Moreover, the efflux ratio at 10 μM in series [8] turned out to be 6. Also, the logD in [9] is 2.9.
Turning to `CCN1CC(=O)N[C@@H](CC(C)C)C(=O)N(C)[C@@H](C)C(=O)N[C@@H](CC(C)C)C(=O)N2CCC[C@@H]2C(=O)N(CC2CCCCC2)CC(=O)N[C@@H](CC(C)C)C(=O)N(C)[C@@H](C)C(=O)N[C@@H](Cc2ccccc2)C(=O)N2CCC[C@@H]2C1=O` [Compound A08] (cyclo(F[dP][NEtG]L[NMeA]L[dP][NCyclohexylmethylGly]L[NMeA])), the “Aq. Sol.” value in [1] is given as 0.070 mg/mL. Also, the results for the solubility in series [1] (setting [18]) and in series [1] (setting [13]) were 6.8 µg/mL (≈ 6.24 µM) and 70 µg/mL (≈ 64.3 µM), respectively. In series [10], the “MDCK Perm.” value was determined as 2.47e-05 cm/s. Besides, the bioavailability was 5% in series [2] (setting [14]), 31% in series [2] (setting [15]), 59% in series [2] (setting [16]) and 7% in series [2] (setting [17]). Moreover, in [3], the share remaining at 0.5 h stood at 33%. The “Microsomal Stability” value in series [3] is 33%. The Papp in series [5] is 25 ×10⁻⁶ cm/s; in [7], 18 ×10⁻⁶ cm/s. Besides, in series [6], the “Serum Protein Binding” value is 99% and >99.8%. Moreover, the “PAMPA Perm.” value in [7] was 1.88e-05 cm/s. Moreover, the pH-dependent lipophilicity (logD) in [9] was found to be 4.1.
As to `CCN1CC(=O)N[C@@H](CC(C)C)C(=O)N(C)[C@@H](C)C(=O)N[C@@H](CC(C)C)C(=O)N2CCC[C@@H]2C(=O)N(CC2CCOCC2)CC(=O)N[C@@H](CC(C)C)C(=O)N(C)[C@@H](C)C(=O)N[C@@H](Cc2ccccc2)C(=O)N2CCC[C@@H]2C1=O` [Compound A09] (cyclo([NEtG]L[NMeA]L[dP][Gly(N-CH2-oxan-4-yl)]L[NMeA]F[dP])), the “Aq. Sol.” value in series [1] amounted to 0.600 mg/mL. The solubility was 640 µg/mL (≈ 586 µM) in series [1] (setting [18]) and 600 µg/mL (≈ 550 µM) in [1] (setting [13]). The “Oral bioavailability, +CYP inhib. +P-gp inhib.” value in series [2] (setting [19]) was 105^c %. Besides, the bioavailability in series [2] (setting [14]) was 2%; in [2] (setting [15]), 5%; in [2] (setting [16]), greater than 100%; in [2] (setting [17]), 22%. In series [3], this compound registered an amount remaining at 0.5 h of 67%. Moreover, the “Microsomal Stability” value in series [3] is reported as 67%. Also, the “P-gp R-value” in series [4] is on record as 46.9. The PAMPA membrane transport result in [11] is given as “some membrane transport was observed”. For the same compound, the Papp in [5] amounted to 3.1 ×10⁻⁶ cm/s; in [7], 35 ×10⁻⁶ cm/s. The “Serum Protein Binding” value in series [6] came out at 98%. For the same compound, the free fraction (fraction unbound) in [6] is 0.01. The “PAMPA Perm.” value in series [7] was 3.57e-05 cm/s. Also, in series [8], the efflux ratio at 10 μM turned out to be 43. This compound also showed a logD in series [9] of 4.1. Moreover, the “LogD (oct/w)” value in series [9] (pH 7.4) was greater than 4.1.
On to `CCN1CC(=O)N[C@@H](CC(C)C)C(=O)N2CCC[C@@H]2C(=O)N(C)[C@@H](CC(C)C)C(=O)N[C@@H](C)C(=O)N(CC2CCOCC2)CC(=O)N[C@@H](C)C(=O)N2CCC[C@@H]2C(=O)N(C)[C@@H](CC(C)C)C(=O)N[C@@H](C)C1=O` [Compound B03] (cyclo(A[NEtG]L[dP][NMeL]A[Gly(N-CH2-oxan-4-yl)]A[dP][NMeL])), for which, in series [1], the “Aq. Sol.” value stood at 1.900 mg/mL. In addition, the solubility in series [1] (setting [13]) was 1900 µg/mL (≈ 1870 µM). Also, in series [3], the amount remaining at 0.5 h was 94% and the “Microsomal Stability” value is 94%. In series [5], this compound had a Papp of 0.3 ×10⁻⁶ cm/s. Moreover, in series [6], the “Serum Protein Binding” value worked out at 56% and the fraction unbound is 0.43. Further, in [8], the efflux ratio at 10 μM is 1.4. Further, the logD in series [9] amounted to 2.1.
Take `CCN1CC(=O)N[C@@H](CC(C)C)C(=O)N2CCC[C@@H]2C(=O)N(C)[C@@H](CC(C)C)C(=O)N[C@@H](C)C(=O)N(CC2CCOCC2)CC(=O)N[C@@H](Cc2ccccc2)C(=O)N2CCC[C@@H]2C(=O)N(C)[C@@H](CC(C)C)C(=O)N[C@@H](C)C1=O` [Compound B09] (cyclo(A[NEtG]L[dP][NMeL]A[Gly(N-CH2-oxan-4-yl)]F[dP][NMeL])): the “Aq. Sol.” value in series [1] amounted to 2.200 mg/mL. Also, the solubility in series [1] (setting [13]) was 2200 µg/mL (≈ 2020 µM). The “MDCK Perm.” value in series [10] turned out to be 4e-07 cm/s. In addition, the “Oral bioavailability, +CYP inhib. +P-gp inhib.” value in series [2] (setting [19]) came out at 14%. In series [2] (mice, oral, pretreatment with GF120918 (P-gp inhibitor)), the “Oral bioavailability, +P-gp inhib.” value turned out to be 3%. Also, in series [2] (setting [14]), the bioavailability amounted to 0.7%. In addition, the bioavailability in [2] (setting [15]) turned out to be 1.5%. In addition, in series [3], the fraction remaining at 0.5 h stood at 90% and the “Microsomal Stability” value is 90%. In [4], the “P-gp R-value” is reported as 10. Moreover, in series [7], the Papp was 0.7 ×10⁻⁶ cm/s and the “PAMPA Perm.” value amounted to 1.4e-06 cm/s. The same compound yielded a logD in series [12] of 3.6.

The values are drawn from US11939403B2, “Peptide-peptoid scaffolds” (The Regents of the University of California, priority 2020, dated 2024).
